In the supplement of paper PMC11451515:

Legend:
Test in all cases: AUC of viability dose-response curve (% viability x log10 dose units); higher = less sensitive
Conditions in all cases: 48 h
P12-Ichikawa = tested on: P12-Ichikawa
Outline: (§1)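 Leukemia cells adapted to each medium were seeded at 500 or 1000 cells/well in 1536-well plates and dosed with library compounds in DMSO at 11 threefold doses from 47 μM to 0.79 nM for 48 h at 37°C. CellTiter-Glo One luminescence was normalised per plate to DMSO and cell-free wells, then fitted with a four-parameter log-logistic model over log10 doses. Area under the curve was taken from this fit by the trapezoidal rule, with curves above full viability scaled and curves failing quality control removed.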

NOMO1 = tested on: NOMO1
Outline: as §1

SEM cells = tested on: SEM cells
Outline: as §1

[1] = RPMI 5 mM glucose + 10% dialyzed FBS

SMILES | AUC of viability dose-response curve (P12-Ichikawa; HPLM + 10% dialyzed FBS) | AUC of viability dose-response curve (P12-Ichikawa; RPMI 5 mM glucose + 10% FBS) | AUC of viability dose-response curve (P12-Ichikawa; [1]) | AUC of viability dose-response curve (NOMO1; HPLM + 10% dialyzed FBS) | AUC of viability dose-response curve (NOMO1; RPMI 5 mM glucose + 10% FBS) | AUC of viability dose-response curve (NOMO1; [1]) | AUC of viability dose-response curve (SEM cells; HPLM + 10% dialyzed FBS) | AUC of viability dose-response curve (SEM cells; RPMI 5 mM glucose + 10% FBS) | AUC of viability dose-response curve (SEM cells; [1])
CC(C)=CCC/C(C)=C/CC/C(C)=C/CC/C(C)=C/CC/C(C)=C/CC/C(C)=C/CC/C(C)=C/CC/C(C)=C/CC/C(C)=C/CO | 467 | 457 | 465 | 450 | 462 | 455 | 475 | 436 | 431
Cc1ccc([N+](=O)[O-])cc1[S+](=O)([O-])N(C)/N=C/c1cnc2ccc(Br)cn12 | 250 | 240 | 244 | 196 | 223 | 217 | 203 | 207 | 222
NC(=O)Nc1sc(-c2ccc(F)cc2)cc1C(N)=O | 419 | 421 | 414 | 415 | 436 | 415 | 425 | 304 | 402
C[C@H]1C[C@H]2[C@@H]3CC[C@](O)(C(=O)CO)[C@@]3(C)C[C@H](O)[C@@H]2[C@@]\4(C)/C=C\C(=O)\C=C14 | 378 | 341 | 314 | 456 | 444 | 451 | 315 | 357 | 352
C[C@@H]1CCN(C(=O)CC#N)C[C@@H]1N(C)c1ncnc2[nH]ccc12 | 411 | 413 | 377 | 407 | 376 | 414 | 381 | 453 | 430
CN(C)c1ccc2nc3ccc(N(C)C)cc3[s+]c2c1 | 387 | 386 | 395 | 401 | 374 | 376 | – | – | –
O=C(CCCCCCC(=O)Nc1ccc([C@H]2O[C@@H](CSc3nc(-c4ccccc4)c(-c4ccccc4)o3)C[C@@H](c3ccc(CO)cc3)O2)cc1)NO | 378 | 376 | 362 | 405 | 406 | 403 | 398 | 397 | 391
O=C(CCc1ccc(O)cc1)c1c(O)cc(O)cc1O | 459 | 467 | 459 | 457 | 460 | 455 | 433 | 438 | 434
Cc1ccc(C(=O)Nc2cccc(C(F)(F)F)c2)cc1-c1ccc2nc(NCCN3CCOCC3)ncc2c1 | 418 | 408 | 408 | 384 | 388 | 384 | 384 | 378 | 378
